Values of other authors in patent publication US6599527B1, “Preparation of pharmaceutical compositions” (Phares Pharmaceutical Research N.V., priority 1997, dated 2003).

Details: in vivo

For “phosphatidylcholine [phosphatidylcholine (PC)]”, the “fraction entering the GI tract that is absorbed” value is listed as “Over 90%”.
